In BigSolDB 2.1:

O=C(O)c1ccc(C(=O)O)o1
Conditions | solubility (mole fraction)
in acetic acid, 303.55 K | 0.000242
in acetic acid, 313.25 K | 0.000319
in acetic acid, 322.95 K | 0.000471
in acetic acid, 332.75 K | 0.000656
in acetic acid, 342.45 K | 0.000874
in acetic acid, 352.25 K | 0.00111
in ethanol, 299.35 K | 0.00298
in ethanol, 305.35 K | 0.00337
in ethanol, 311.25 K | 0.004
in ethanol, 319.25 K | 0.00478
in ethanol, 323.15 K | 0.00526
in ethanol, 328.95 K | 0.0062
in ethanol, 334.75 K | 0.0072
in ethanol, 340.55 K | 0.00814
in ethanol, 346.35 K | 0.0093
in methanol, 297.35 K | 0.00371
in methanol, 303.35 K | 0.00408
in methanol, 309.35 K | 0.00484
in methanol, 315.25 K | 0.00563
in methanol, 321.15 K | 0.00661
in methanol, 326.85 K | 0.00758
in methanol, 332.65 K | 0.00884
in water, 303.55 K | 0.000141
in water, 313.25 K | 0.000195
in water, 322.95 K | 0.000302
in water, 332.75 K | 0.00047
in water, 342.45 K | 0.000672
in water, 352.25 K | 0.000873
